Experimental data taken from patent US12343400B2, “Brain tumor-targeting peptide and application thereof” (priority 2018, dated 2025).
Blank lines part the entries; values can stand above or below the molecule they belong to. Where a SMILES comes first, the peptide text is derived from it. Bridges are numbered along the chain shown (N, C = ends). Where no end group is shown, it is not given here. The star is where a group is joined. Paclitaxel(2'-O-succinyl) = CC(=O)O[C@H]1C(=O)[C@@]2(C)[C@H]([C@H](OC(=O)c3ccccc3)[C@]3(O)C[C@H](OC(=O)[C@H](OC(=O)CCC(=O)*)[C@@H](NC(=O)c4ccccc4)c4ccccc4)C(C)=C1C3(C)C)[C@]1(OC(C)=O)CO[C@@H]1C[C@@H]2O

Assays:
[1] = test system: U87MG brain glioma; assay: Survival time of brain glioma model mice; type: in vivo, nude mice; settings: tail vein, equal dose
Experimental: On the first day, 10^6 U87MG cells were inoculated at the right caudate nucleus of nude mice of 6-8 weeks old. Three days later, a solvent or equal dose of paclitaxel or PBL001 was administered via the tail vein, and the survival time of each group of mice was recorded, as shown in FIG. 13.

[2] = test system: U87 brain tumors; settings: mouse, in vivo
Experimental: Cyanine5.5 NHS ester labeling reagent of the Lumiprobe brand was used to fluorescently label each short peptide, and each short peptide was labeled with one fluorescent molecule. […] The fluorescence intensity per unit area was calculated for the brain tumor site and other brain sites respectively, and the enrichment factor of the corresponding polypeptide at the tumor site can be obtained by dividing the fluorescence intensity per unit area at the brain tumor site by the fluorescence intensity per unit area at other brain sites.

[3] = test system: u87 brain glioma; assay: Enrichment of fluorescent short peptides in brain and tumor of u87 brain glioma model mice; type: in vivo, nude mice
Experimental: u87 brain glioma cells were cultivated. When the cells grew to a sufficient amount, the cells were taken, 8-weeks old nude mice were selected, the brains were located, and 5× 10^5 cells were injected at the location for brain tumorigenesis. U87 tumorigenesis cell line is a cell line with luciferase gene transferred, and the mouse imager can be used to observe the tumorigenesis effect in real time.
After tumorigenesis of the tumor model mice became stable, 100 μl of solution of short peptides labeled with fluorescent molecules was injected into the tail veins. A short peptide Angiopep 2, which was from the Angiochem company and was reported in an article to be able to cross the blood-brain barrier, was selected as a reference control. It is currently reported that this short peptide has excellent applications in crossing the blood-brain barrier and targeting brain tumors. The negative control was fluorescent molecule cy5.5 of the same amount of fluorescence equivalent. After the tail vein injection, the small animal in vivo imaging system IVIS was used to check the brain fluorescence. 100 μl of 5 mg/ml luciferase reaction substrate was injected into the intraperitoneal cavity. After 5 minutes, the small animal imaging system was used to check the brain tumors.
The brains of the mice were taken and the fluorescence of the brains was compared.

Molecule: CC[C@H](C)[C@H](NC(=O)CNC(=O)[C@H](CCCNC(=N)N)NC(=O)[C@H](CC(C)C)NC(=O)[C@H](Cc1ccccc1)NC(=O)[C@H](CC(N)=O)NC(=O)[C@H](CC(N)=O)NC(=O)[C@H](CCCNC(=N)N)NC(=O)[C@H](CCCCNC(=O)CCC(=O)O[C@@H](C(=O)O[C@H]1C[C@@]2(O)[C@@H](OC(=O)c3ccccc3)[C@@H]3[C@]4(OC(C)=O)CO[C@@H]4C[C@H](O)[C@@]3(C)C(=O)[C@H](OC(C)=O)C(=C1C)C2(C)C)[C@@H](NC(=O)c1ccccc1)c1ccccc1)NC(=O)[C@@H]1CCCN1C(=O)[C@H](CCCNC(=N)N)NC(=O)CNC(=O)CNC(=O)[C@H](Cc1ccc(O)cc1)NC(=O)[C@H](Cc1ccccc1)NC(=O)[C@@H](NC(=O)CCC(=O)O[C@@H](C(=O)O[C@H]1C[C@@]2(O)[C@@H](OC(=O)c3ccccc3)[C@@H]3[C@]4(OC(C)=O)CO[C@@H]4C[C@H](O)[C@@]3(C)C(=O)[C@H](OC(C)=O)C(=C1C)C2(C)C)[C@@H](NC(=O)c1ccccc1)c1ccccc1)[C@@H](C)O)C(=O)N[C@@H](CCCNC(=N)N)C(=O)N[C@@H](CO)C(=O)N[C@@H](CCCNC(=N)N)C(=O)NCC(=O)N[C@@H](CC(=O)O)C(=O)O [PBL001] ({Paclitaxel(2'-O-succinyl)}-TFYGGRPK(Paclitaxel(2'-O-succinyl))RNNFLRGIRSRGD-OH)
toxic and side effects compared with paclitaxel [1]: lower toxic and side effects

Molecule: CC[C@H](C)[C@H](NC(=O)CNC(=O)[C@H](CCCNC(=N)N)NC(=O)[C@H](CC(C)C)NC(=O)[C@H](Cc1ccccc1)NC(=O)[C@H](CC(N)=O)NC(=O)[C@H](CC(N)=O)NC(=O)[C@H](CCCNC(=N)N)NC(=O)[C@H](CCCCN)NC(=O)[C@@H]1CCCN1C(=O)[C@H](CCCNC(=N)N)NC(=O)CNC(=O)CNC(=O)[C@H](Cc1ccc(O)cc1)NC(=O)[C@H](Cc1ccccc1)NC(=O)[C@@H](N)[C@@H](C)O)C(=O)N[C@@H](CCCNC(=N)N)C(=O)N[C@H]1CSSC[C@@H](C(=O)O)NC(=O)[C@H](CC(=O)O)NC(=O)[C@@H]2CCCN2C(=O)CNC(=O)[C@H](CCCCN)NC(=O)[C@H](CC(=O)O)NC(=O)CNC(=O)[C@H](CCCNC(=N)N)NC1=O [SEQ ID NO:8] (H-TFYGGRPKRNNFLRGIRCRGDKGPDC-OH; disulfide 18-26; N-terminus and C-terminus assumed)
tumor enrichment (enrichment factor tumor site / other brain sites) compared to SEQ ID NO:2 peptide [2]: not as significant as the other three synthesized polypeptides

brain fluorescence intensity relative to fluorescently labeled reference peptide Angiopep2 ([3]; brain glioma model mice (FIG. 6)): 1.2 times
fluorescence accumulation in the brain tumor site ([3]; brain glioma model mice (FIG. 7)): obvious fluorescence accumulation
Molecule: TFYGGRPKRNNFLRGIRSRGD [Pb001]
brain enrichment amount compared with fluorescently labeled reference peptide Angiopep2 ([3]; brain glioma model mice, tail vein injection, after perfusion (FIG. 5)): better than that of the fluorescently labeled reference peptide Angiopep2
